Data from publication PMC3832595, “Synthesis of a Pseudo-Disaccharide Library and Its Application to the Characterisation of the Heparanase Catalytic Site” (PLoS ONE, 2013).

Target: T1, human heparanase (Homo sapiens, UniProt Q9Y251)
T1 construct: purchased Apollo Scientific, Cheshire UK
T1 sequence (Q9Y251 158-543 limits assumed): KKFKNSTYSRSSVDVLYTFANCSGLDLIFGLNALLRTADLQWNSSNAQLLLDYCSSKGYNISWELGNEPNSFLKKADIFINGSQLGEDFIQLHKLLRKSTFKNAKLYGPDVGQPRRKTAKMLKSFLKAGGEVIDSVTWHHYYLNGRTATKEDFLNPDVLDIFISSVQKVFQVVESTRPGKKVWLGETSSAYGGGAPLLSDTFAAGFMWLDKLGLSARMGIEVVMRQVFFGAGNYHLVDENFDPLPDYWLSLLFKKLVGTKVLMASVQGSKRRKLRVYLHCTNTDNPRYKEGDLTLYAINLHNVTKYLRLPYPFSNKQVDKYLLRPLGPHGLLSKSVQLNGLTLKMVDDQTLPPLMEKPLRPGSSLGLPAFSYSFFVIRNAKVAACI
T1 sequence (Q9Y251 36-109 limits assumed): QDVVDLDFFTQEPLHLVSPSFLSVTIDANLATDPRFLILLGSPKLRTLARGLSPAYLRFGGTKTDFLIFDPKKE
Assay: Heparanase inhibition assay (biotinylated heparan sulfate degradation, CBD-FGF binding, avidin-POD detection; modified Genway kit)
Assay type: biochemical
Conditions: recombinant human heparanase; for IC50: mean of three readings ± standard error, read-out: IC50 (n=3) against human heparanase

`CCCCOC1CC(O)C(N)CC1CO` (stereo not shown) [compound 11] was tested, and the “Inhibition of heparanase (result in words)” value was “no significant inhibition” and the IC50 was over 10000 µM.

`NC1CC(CO)C(OC2OC(CO)C(O)C(O)C2O)CC1O` (stereo not shown) [8a] gave an IC50 of 1200 ± 300 µM.

For `NC1CC(CO)C(OC2OC(CO)C(O)C(O)C2O)CC1O` (stereo not shown) [8b], the IC50 was 800 ± 200 µM.

Compound `NC1CC(CO)C(OC2OC(CO)C(O)C(O)C2O)CC1O` (stereo not shown) [8d] has an IC50 of 800 ± 200 µM.

For `NC1CC(CO)C(OC2OC(CO)C(O)C(O)C2O)CC1O` (stereo not shown) [8c], the “Inhibition of heparanase (result in words)” value was “no significant activity” and the IC50 was over 10000 µM.
